Measured values from patent US10934283B2, “COMT inhibiting methods and compositions” (LIEBER INSTITUTE FOR BRAIN DEVELOPMENT, priority 2015, dated 2021).
Where a name gives a salt, the structure may show the parent alone.

Biological target: T1, catechol-O-methyltransferase (COMT) (Homo sapiens, UniProt P21964)
T1 construct: M51A variant) was expressed in HEK 293F cells
T1 sequence (P21964 52-271 limits assumed): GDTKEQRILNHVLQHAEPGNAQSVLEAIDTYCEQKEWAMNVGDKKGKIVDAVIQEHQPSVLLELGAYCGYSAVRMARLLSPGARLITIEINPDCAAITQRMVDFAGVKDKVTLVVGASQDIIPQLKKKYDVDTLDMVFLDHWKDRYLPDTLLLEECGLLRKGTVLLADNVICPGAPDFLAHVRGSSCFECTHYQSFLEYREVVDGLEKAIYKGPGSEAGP
Assay: COMT inhibition assay (HTRF, production of SAH from SAM)
Format: biochemical
Conditions: table does not say MB-COMT or S-COMT
Method: The ability of compounds to inhibit the activity of catechol-O-methyltransferase (COMT) was determined by a homogenous time-resolved fluorescent (HTRF) assay (Lina et al, 2012; kit from CisBio, Codolet, France). This assay measures the production of S-adenosyl homocysteine (SAH) from the methyl donor S-adenosyl methionine. Recombinant human membrane bound COMT (MB-COMT; M51A variant) was expressed in HEK 293F cells using 293Fectin (Life Technologies, Gent, Belgium) and membranes prepared. The membranes were re-suspended in buffer (20 mM Tris/HCl pH 7; 10 mM glycerol; 2 mM MgCl2; 10 mM NaCl), aliquoted and stored at −80° C. Recombinant human soluble COMT(S-COMT), Val158 variant and a hexa-His tag on the N-terminus, was purified using Ni-NTA chromatography, the His tag removed and stored in buffer as above.
For the human MB-COMT assay, membranes (62 ng/well) were incubated with SAM (20 μM final, CisBio) and dopamine (1.5 μM final; Sigma H8502, Diegem, Belgium) in the presence or absence of varying concentrations (typically 10 concentrations ranging from 10 ? M to 0.1 nM) of compound for 40 min at 37° C. in 384-well microtiter plates (10 ? l per well final volume). The reaction was terminated by the addition of acylation buffer and the amount of SAH produced determined according to manufacturer's instructions. Specific inhibition as that inhibited by a high concentration of tolcapone and all experiments were validated using a control curve to tolcapone.
The human S-COMT assay was performed as above except that 0.15 ng enzyme/well was incubated with SAM ([…]) and dopamine (100 μM final) for 15 min at 37° C. and SAH production determined.
HTRF readings were performed using a Perkin Elmer Envision and results expressed as concentration of SAH produced using a standard curve. Results were analyzed using non-linear regression to the 4-parameter logistic equation and pIC50 (−log 10 concentration of drug which inhibits enzyme activity/SAH production by 50%) determined.

Cc1ccc(-c2nc3sccn3c2CN2CCn3cc(O)c(=O)cc3C2)cc1 [Example 56, 7-hydroxy-2-{[6-(4-methylphenyl)imidazo[2,1-b][1,3]thiazol-5-yl]methyl}-1,2,3,4-tetrahydro-8H-pyrido[1,2-a]pyrazin-8-one]
Activity range (pIC50): ++ (two plus signs (++) is associated with a pIC50 of from about 6 to 7)

O=c1cc2n(cc1O)CCN(Cc1ccc(Cl)cc1Cl)C2 [Example 57, 7-hydroxy-2-[(2,4-dichlorophenyl)methyl]-1,2,3,4-tetrahydro-8H-pyrido[1,2-a]pyrazin-8-one]
Activity range (pIC50): +++ (three plus signs (+++) is associated with a pIC50 of above about 7)

O=c1cc2n(cc1O)CCN(Cc1ccccc1Cl)C2 [Example 58, 2-[(2-chlorophenyl)methyl]-7-hydroxy-3,4-dihydro-1H-pyrido[1,2-a]pyrazin-8-one]
Activity range (pIC50): +++ (three plus signs (+++) is associated with a pIC50 of above about 7)

O=c1cc2n(cc1O)CCN(Cc1c(F)cccc1Cl)C2 [Example 59, 2-[(2-chloro-6-fluoro-phenyl)methyl]-7-hydroxy-3,4-dihydro-1H-pyrido[1,2-a]pyrazin-8-one]
Activity range (pIC50): +++ (three plus signs (+++) is associated with a pIC50 of above about 7)

O=c1cc2n(cc1O)CCN(Cc1c(Cl)cccc1Cl)C2 [Example 60, 2-[(2,6-dichlorophenyl)methyl]-7-hydroxy-3,4-dihydro-1H-pyrido[1,2-a]pyrazin-8-one]
Activity range (pIC50): +++ (three plus signs (+++) is associated with a pIC50 of above about 7)

O=c1cc2n(cc1O)CCN(Cc1ccc(F)cc1Cl)C2 [Example 61]
Activity range (pIC50): +++ (three plus signs (+++) is associated with a pIC50 of above about 7)

O=c1cc2n(cc1O)CCN(Cc1c(F)cccc1F)C2 [Example 62, 2-[(2,6-difluorophenyl)methyl]-7-hydroxy-3,4-dihydro-1H-pyrido[1,2-a]pyrazin-8-one]
Activity range (pIC50): +++ (three plus signs (+++) is associated with a pIC50 of above about 7)

O=c1cc2n(cc1O)CCN(Cc1ccc(Br)cc1Cl)C2 [Example 63, 2-[(4-bromo-2-chloro-phenyl)methyl]-7-hydroxy-3,4-dihydro-1H-pyrido[1,2-a]pyrazin-8-one hydrochloride]
Activity range (pIC50): +++ (three plus signs (+++) is associated with a pIC50 of above about 7)

O=c1cc2n(cc1O)CCN(Cc1ccc(C3CC3)cc1Cl)C2 [Example 64, 2-[(2-chloro-4-cyclopropyl-phenyl)methyl]-7-hydroxy-3,4-dihydro-1H-pyrido[1,2-a]pyrazin-8-one hydrochloride]
Activity range (pIC50): +++ (three plus signs (+++) is associated with a pIC50 of above about 7)

CC1(C)Cn2cc(O)c(=O)cc2CN1Cc1ccccc1Cl [Example 65, 2-[(2-chlorophenyl)methyl]-7-hydroxy-3,3-dimethyl-1,4-dihydropyrido[1,2-a]pyrazin-8-one]
Activity range (pIC50): ++ (two plus signs (++) is associated with a pIC50 of from about 6 to 7)

O=c1cc2n(cc1O)CCN(Cc1cc([N+](=O)[O-])c(Cl)cc1Cl)C2 [Example 66, 2-[(2,4-dichloro-5-nitro-phenyl)methyl]-7-hydroxy-3,4-dihydro-1H-pyrido[1,2-a]pyrazin-8-one]
Activity range (pIC50): +++ (three plus signs (+++) is associated with a pIC50 of above about 7)

Cc1ccccc1C(C)N1CCn2cc(O)c(=O)cc2C1 (stereo not shown) [Example 67, 7-hydroxy-2-[1-(2-methylphenyl)ethyl]-1,2,3,4-tetrahydro-8H-pyrido[1,2-a]pyrazin-8-one]
Activity range (pIC50): +++ (three plus signs (+++) is associated with a pIC50 of above about 7)

CC(c1ccc(Cl)cc1)N1CCn2cc(O)c(=O)cc2C1 (stereo not shown) [Example 68, 2-[1-(4-chlorophenyl)ethyl]-7-hydroxy-1,2,3,4-tetrahydro-8H-pyrido[1,2-a]pyrazin-8-one]
Activity range (pIC50): ++ (two plus signs (++) is associated with a pIC50 of from about 6 to 7)

CC(c1cc(Cl)ccc1Cl)N1CCn2cc(O)c(=O)cc2C1 (stereo not shown) [Example 69, 2-[1-(2,5-dichlorophenyl)ethyl]-7-hydroxy-1,2,3,4-tetrahydro-8H-pyrido[1,2-a]pyrazin-8-one]
Activity range (pIC50): +++ (three plus signs (+++) is associated with a pIC50 of above about 7)

CC(c1ccc(C(F)(F)F)cc1)N1CCn2cc(O)c(=O)cc2C1 (stereo not shown) [Example 70, 7-hydroxy-2-{1-[4-(trifluoromethyl)phenyl]ethyl}-1,2,3,4-tetrahydro-8H-pyrido[1,2-a]pyrazin-8-one]
Activity range (pIC50): ++ (two plus signs (++) is associated with a pIC50 of from about 6 to 7)

Cc1cccc(C(C)N2CCn3cc(O)c(=O)cc3C2)c1 (stereo not shown) [Example 71, 7-hydroxy-2-[1-(3-methylphenyl)ethyl]-1,2,3,4-tetrahydro-8H-pyrido[1,2-a]pyrazin-8-one]
Activity range (pIC50): ++ (two plus signs (++) is associated with a pIC50 of from about 6 to 7)

CC(c1cccc(Cl)c1)N1CCn2cc(O)c(=O)cc2C1 (stereo not shown) [Example 72, 2-[1-(3-chlorophenyl)ethyl]-7-hydroxy-1,2,3,4-tetrahydro-8H-pyrido[1,2-a]pyrazin-8-one]
Activity range (pIC50): ++ (two plus signs (++) is associated with a pIC50 of from about 6 to 7)

O=c1cc2n(cc1O)CCN(C1CCc3c(Cl)cccc31)C2 (stereo not shown) [Example 73, 2-(4-chloro-2,3-dihydro-1H-inden-1-yl)-7-hydroxy-1,2,3,4-tetrahydro-8H-pyrido[1,2-a]pyrazin-8-one]
Activity range (pIC50): +++ (three plus signs (+++) is associated with a pIC50 of above about 7)

COc1cccc(OC)c1C(C)N1CCn2cc(O)c(=O)cc2C1 (stereo not shown) [Example 74, 2-[1-(2,6-dimethoxyphenyl)ethyl]-7-hydroxy-1,2,3,4-tetrahydro-8H-pyrido[1,2-a]pyrazin-8-one]
Activity range (pIC50): ++ (two plus signs (++) is associated with a pIC50 of from about 6 to 7)

CC(c1cc(F)cc(F)c1F)N1CCn2cc(O)c(=O)cc2C1 (stereo not shown) [Example 75, 7-hydroxy-2-[1-(2,3,5-trifluorophenyl)ethyl]-1,2,3,4-tetrahydro-8H-pyrido[1,2-a]pyrazin-8-one]
Activity range (pIC50): +++ (three plus signs (+++) is associated with a pIC50 of above about 7)

CC(c1ccccc1Cl)N1CCn2cc(O)c(=O)cc2C1 (stereo not shown) [Example 76, 2-[1-(2-chlorophenyl)ethyl]-7-hydroxy-1,2,3,4-tetrahydro-8H-pyrido[1,2-a]pyrazin-8-one]
Activity range (pIC50): +++ (three plus signs (+++) is associated with a pIC50 of above about 7)

CC(c1ccccc1OCc1ccccc1)N1CCn2cc(O)c(=O)cc2C1 (stereo not shown) [Example 77, 2-{1-[2-(benzyloxy)phenyl]ethyl}-7-hydroxy-1,2,3,4-tetrahydro-8H-pyrido[1,2-a]pyrazin-8-one]
Activity range (pIC50): +++ (three plus signs (+++) is associated with a pIC50 of above about 7)

CCCCC(c1ccccc1)N1CCn2cc(O)c(=O)cc2C1 (stereo not shown) [Example 78, 7-hydroxy-2-(1-phenylpentyl)-1,2,3,4-tetrahydro-8H-pyrido[1,2-a]pyrazin-8-one]
Activity range (pIC50): +++ (three plus signs (+++) is associated with a pIC50 of above about 7)

O=c1cc2n(cc1O)CCN(C1CCc3cccc(F)c31)C2 (stereo not shown) [Example 79, 2-(7-fluoro-2,3-dihydro-1H-inden-1-yl)-7-hydroxy-1,2,3,4-tetrahydro-8H-pyrido[1,2-a]pyrazin-8-one]
Activity range (pIC50): +++ (three plus signs (+++) is associated with a pIC50 of above about 7)

O=c1cc2n(cc1O)CCN(C1CC(c3ccccc3)Oc3ccccc31)C2 (stereo not shown) [Example 80, 7-hydroxy-2-(2-phenyl-3,4-dihydro-2H-chromen-4-yl)-1,2,3,4-tetrahydro-8H-pyrido[1,2-a]pyrazin-8-one]
Activity range (pIC50): ++ (two plus signs (++) is associated with a pIC50 of from about 6 to 7)

CC(c1cccc(F)c1)N1CCn2cc(O)c(=O)cc2C1 (stereo not shown) [Example 81, 2-[1-(3-fluorophenyl)ethyl]-7-hydroxy-1,2,3,4-tetrahydro-8H-pyrido[1,2-a]pyrazin-8-one]
Activity range (pIC50): ++ (two plus signs (++) is associated with a pIC50 of from about 6 to 7)

O=c1cc2n(cc1O)CCN(C(c1ccccc1)C1CCCC1)C2 (stereo not shown) [Example 82, 2-[cyclopentyl(phenyl)methyl]-7-hydroxy-1,2,3,4-tetrahydro-8H-pyrido[1,2-a]pyrazin-8-one]
Activity range (pIC50): +++ (three plus signs (+++) is associated with a pIC50 of above about 7)

COc1cccc(C(C)N2CCn3cc(O)c(=O)cc3C2)c1 (stereo not shown) [Example 83, 7-hydroxy-2-[1-(3-methoxyphenyl)ethyl]-1,2,3,4-tetrahydro-8H-pyrido[1,2-a]pyrazin-8-one]
Activity range (pIC50): ++ (two plus signs (++) is associated with a pIC50 of from about 6 to 7)
